Assays:
IGF1R = experiment: KINOMEscan; format: binding; details: 1000 nM
EIF2AK1 = experiment: KINOMEscan; format: binding; details: 1000 nM
PIM2 = experiment: KINOMEscan; format: binding; details: 1000 nM
p38-beta = experiment: KINOMEscan; format: binding; details: 1000 nM
IRAK1 = experiment: KINOMEscan; format: binding; details: 1000 nM
[1] = tested on: panel of B-cell lymphoma cell lines; experiment: anti-proliferative CellTiter-Glo assay, whole panel; format: cell-based; details: all cell lines of the B-cell lymphoma panel
Description: Cell viability was measured using the CellTiter–Glo assay (Promega, USA) according to the manufacturer’s instructions, and […] was measured in a Bio-red Microplate reader (Bio-Red, USA).

CTK = experiment: KINOMEscan; format: binding; details: 1000 nM
DMPK = experiment: KINOMEscan; format: binding; details: 1000 nM
DCAMKL1 = experiment: KINOMEscan; format: binding; details: 1000 nM
MEK3 = experiment: KINOMEscan; format: binding; details: 1000 nM
[2] = tested on: RSK1(Kin.Dom.1-N-terminal); experiment: KINOMEscan; format: binding; details: 1000 nM
p38-delta = experiment: KINOMEscan; format: binding; details: 1000 nM
FES = experiment: KINOMEscan; format: binding; details: 1000 nM
JNK3 = experiment: KINOMEscan; format: binding; details: 1000 nM
EGFR(G719C) = experiment: KINOMEscan; format: binding; details: 1000 nM
PAK1 = experiment: KINOMEscan; format: binding; details: 1000 nM
[3] = tested on: ABL1(T315I)-nonphosphorylated; experiment: KINOMEscan; format: binding; details: 1000 nM
LIMK1 = experiment: KINOMEscan; format: binding; details: 1000 nM
ROCK1 = experiment: KINOMEscan; format: binding; details: 1000 nM
MST1 = experiment: KINOMEscan; format: binding; details: 1000 nM
DCAMKL3 = experiment: KINOMEscan; format: binding; details: 1000 nM
MYO3B = experiment: KINOMEscan; format: binding; details: 1000 nM
KIT(D816H) = experiment: KINOMEscan; format: binding; details: 1000 nM
CAMK1D = experiment: KINOMEscan; format: binding; details: 1000 nM
MEK4 = experiment: KINOMEscan; format: binding; details: 1000 nM
CAMK1B = experiment: KINOMEscan; format: binding; details: 1000 nM
EGFR(S752-I759del) = experiment: KINOMEscan; format: binding; details: 1000 nM
ROCK2 = experiment: KINOMEscan; format: binding; details: 1000 nM
TRPM6 = experiment: KINOMEscan; format: binding; details: 1000 nM
[4] = tested on: EGFR(L747-E749del, A750P); experiment: KINOMEscan; format: binding; details: 1000 nM
PIK3CA = experiment: KINOMEscan; format: binding; details: 1000 nM
MAP4K3 = experiment: KINOMEscan; format: binding; details: 1000 nM
TBK1 = experiment: KINOMEscan; format: binding; details: 1000 nM
SLK = experiment: KINOMEscan; format: binding; details: 1000 nM
ITK = molecular target: T1, ITK (Homo sapiens, UniProt Q08881); experiment: KINOMEscan; format: binding; details: 1000 nM, read-out: Percent Control
T1 construct: purchased Invitrogen (Carlsbad, CA, USA)
T1 sequence (Q08881 1-620): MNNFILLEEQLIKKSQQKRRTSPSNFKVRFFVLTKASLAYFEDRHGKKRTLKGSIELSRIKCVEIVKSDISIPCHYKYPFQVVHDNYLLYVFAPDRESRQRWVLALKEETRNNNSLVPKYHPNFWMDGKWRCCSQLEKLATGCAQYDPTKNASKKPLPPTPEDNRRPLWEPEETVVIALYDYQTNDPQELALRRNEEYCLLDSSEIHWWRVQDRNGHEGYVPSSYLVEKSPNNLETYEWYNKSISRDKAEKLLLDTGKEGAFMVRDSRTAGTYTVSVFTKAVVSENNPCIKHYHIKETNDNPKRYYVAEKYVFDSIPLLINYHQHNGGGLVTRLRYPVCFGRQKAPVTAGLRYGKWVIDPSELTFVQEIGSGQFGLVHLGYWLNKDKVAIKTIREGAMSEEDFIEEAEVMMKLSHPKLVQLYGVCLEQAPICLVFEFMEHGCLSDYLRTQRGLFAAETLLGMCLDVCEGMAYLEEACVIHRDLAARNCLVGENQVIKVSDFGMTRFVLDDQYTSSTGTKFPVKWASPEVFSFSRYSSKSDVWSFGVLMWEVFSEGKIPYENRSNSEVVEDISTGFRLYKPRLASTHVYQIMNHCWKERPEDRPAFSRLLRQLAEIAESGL

BUB1 = experiment: KINOMEscan; format: binding; details: 1000 nM
ERK5 = experiment: KINOMEscan; format: binding; details: 1000 nM
HASPIN = experiment: KINOMEscan; format: binding; details: 1000 nM
FGFR3(G697C) = experiment: KINOMEscan; format: binding; details: 1000 nM
ERBB3 = experiment: KINOMEscan; format: binding; details: 1000 nM
NDR1 = experiment: KINOMEscan; format: binding; details: 1000 nM
VPS34 = experiment: KINOMEscan; format: binding; details: 1000 nM
KIT(L576P) = experiment: KINOMEscan; format: binding; details: 1000 nM
PIK3CA(I800L) = experiment: KINOMEscan; format: binding; details: 1000 nM
BMPR1A = experiment: KINOMEscan; format: binding; details: 1000 nM
MYLK = experiment: KINOMEscan; format: binding; details: 1000 nM

SMILES: C=CC(=O)Nc1cc(Nc2cc(-c3cccc(NC(=O)c4cc5c(s4)CCCC5)c3C)cn(C)c2=O)ccc1N1CCN(CC)CC1 [CHMFL-BTK-85]
- Percent Control (IGF1R): 76%
- Percent Control (EIF2AK1): 100%
- Percent Control (PIM2): 87%
- Percent Control (p38-beta): 89%
- Percent Control (IRAK1): 100%
- GI50s [1]: < 2000 nM
- Percent Control (CTK): 99%
- Percent Control (DMPK): 92%
- Percent Control (DCAMKL1): 100%
- Percent Control (MEK3): 100%
- Percent Control [2]: 100%
- Percent Control (p38-delta): 80%
- Percent Control (FES): 98%
- Percent Control (JNK3): 98%
- Percent Control (EGFR(G719C)): 81%
- Percent Control (PAK1): 75%
- Percent Control [3]: 94%
- Percent Control (LIMK1): 98%
- Percent Control (ROCK1): 100%
- Percent Control (MST1): 100%
- Percent Control (DCAMKL3): 100%
- Percent Control (MYO3B): 92%
- Percent Control (KIT(D816H)): 100%
- Percent Control (CAMK1D): 100%
- Percent Control (MEK4): 100%
- Percent Control (CAMK1B): 100%
- Percent Control (EGFR(S752-I759del)): 90%
- Percent Control (ROCK2): 100%
- Percent Control (TRPM6): 100%
- Percent Control [4]: 57%
- Percent Control (PIK3CA): 82%
- Percent Control (MAP4K3): 97%
- Percent Control (TBK1): 72%
- Percent Control (SLK): 95%
- remaining binding at 1 µM (ITK): 77%
- Percent Control (BUB1): 100%
- Percent Control (ERK5): 100%
- Percent Control (HASPIN): 100%
- Percent Control (FGFR3(G697C)): 87%
- Percent Control (ERBB3): 95%
- Percent Control (NDR1): 100%
- Percent Control (VPS34): 100%
- Percent Control (KIT(L576P)): 79%
- Percent Control (PIK3CA(I800L)): 100%
- Percent Control (BMPR1A): 97%
- Percent Control (MYLK): 66%

— PMC7490411 (Signal Transduction and Targeted Therapy, 2020)
